{"source": "patent US20230393140A1", "about": "“BINDING ASSAYS INVOLVING A PLURALITY OF SYNTHETIC COMPOUNDS, TARGETS, AND COUNTER TARGETS” (SRI International, priority 2020, published 2023)", "key": {"[1]": {"target": "T1, K-Ras (Homo sapiens, UniProt P01116, G12V)", "T1 construct": "purchased Cytoskeleton Inc. CS-RS04", "assay": "MST binding affinity of resynthesized NNP hits to K-Ras", "summary_of_the_method": "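K-Ras G12V was GTP-loaded (EDTA exchange, 750 μM GTP, 2 h at 30° C, then MgCl2) and labeled with maleimide-647 dye. MST was run at room temperature in 20 mM HEPES pH 7.4, 150 mM NaCl, 10 mM MgCl2, 0.05% Tween-20, 1 mM DTT. Incubations lasted 15, 30 and 45 min; triplicate data fitted for affinity.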"}, "[2]": {"target": "T2, cRaf/K-Ras (G12V) PPI (Homo sapiens, UniProt P01116, G12V)", "T2 construct": "b-Kras G12V (GppNHp) (aa 2-169); biotin (b-", "assay": "K-Ras-cRaf HTRF-based PPI profiling;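 for blank corrected HTRF: background is the signal of wells with all components except cRaf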", "assay_type": "biochemical", "conditions": "for blank corrected HTRF: raw data, compounds without fluorescein", "summary_of_the_method": "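K-Ras(G12V) pre-incubated 30 min at room temperature with compound in 20 mM HEPES pH 7.4, 150 mM NaCl, 5 mM MgCl2, 1 mM DTT, 0.005% NP40, 1% DMSO, then cRaf added. HTRF read via anti-GST-Tb cryptate/streptavidin-XL665. % binding is relative to DMSO controls; curves fitted only if activity at top concentration fell below 65%.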"}, "[3]": {"target": "T3, K-Ras-Raf interaction (Homo sapiens, UniProt P01116, G12V)", "T3 construct": "purchased Cytoskeleton Inc. (K-Ras); Jena Bioscience (Raf-RBD) CS-RS04; PR-305", "assay": "K-Ras/Raf inhibition assay (MST competition binding)", "conditions": "NNP at 1 μM pre-incubated with K-Ras 15 minutes at room temperature, then Raf titration", "protocol": "This was tested on an MST competition binding assay (see FIG. 11A).\nLoading was performed according to the following protocol: The 200 μM stock solution of the target protein was diluted to 10 μM in 20 mM HEPES pH 8.0, 150 mM NaCl, 10 mM MgCl2, 1 mM TCEP, 0.05% Tween-20 (total volume 110 μL). 10 μL were set aside for later labeling quality control. EDTA pH 8.0 (stock concentration 10 mM) was added to the protein solution to a final concentration of 80 μM. GTP (stock concentration 50 mM) was added to the protein solution to a final concentration of 750 μM. The solution was incubated at 30° C. for 2 hours (PCR tube) and then placed on ice for 2 minutes. MgCl2 was added to the protein solution to a final concentration of 100 mM. The resulting protein solution was buffer exchanged into the buffer required in the labeling kit for labeling. […] All the other target molecules (TNFα, IL-6, IL-6R and ASGPR) were used as received without any additional treatment.\nLoading of K-Ras with the GTP was performed according to the protocol detailed above (Activation of K-Ras by GTP loading). After the GTP loading the resulting protein solution was buffer exchanged into 100 mM HEPES pH 6.5, 5 mM MgCl2, 50 mM NaCl, 1 mM TCEP."}, "[4]": {"system": "biotinylated GST", "assay": "Interference check with biotinylated GST and detection mix", "excerpt": "Table 20 below provides an interference check on the synthetic compounds using biotinylated GST, which was used with the detection mix to check for compound effect on fluorescence."}}, "note": "Like-named read-outs stand apart in the source and are kept apart here. Marks after values point to notes of the source that are not given here. Numbered stars: 1 amine (or outer) side, 2 acyl side, 3 side chain; on linkers, the order of the positions; unused ones are H or OH. Square brackets hold non-standard residues; d marks the D form. Peptide text beside a SMILES is read from it. * marks the point of attachment. 5FAM = O=C1OC2(c3ccc(O)cc3Oc3cc(O)ccc32)c2ccc(C(=O)*)cc21; NHCH2C6H4(4-CH2CONH2) = NC(=O)Cc1ccc(CN*)cc1; X1 = O=C(Cc1ccc(CN[*:1])cc1)[*:2]", "data": [{"smiles": "CC(C)C[C@@H](NC(=O)[C@@H](Cc1ccc(O)cc1)NC(=O)[C@H]1CCCN1C(=O)[C@@H](CO)NC(=O)Cc1ccc(CNC(=O)CNC(=O)[C@@H](Cc2c[nH]c3ccccc23)NC(=O)[C@@H](CCCNC(=N)N)NC(=O)CNC(=O)[C@H]2CCCN2C(=O)Cc2ccc(CNC(=O)[C@H](C)NC(=O)[C@@H](CCCNC(=N)N)NC(=O)[C@H]3CCCN3C(=O)[C@H](NC(=O)[C@@H](Cc3ccc(O)cc3)NC(=O)Cc3ccc(CNC(=O)[C@H](Cc4ccccc4)NC(=O)[C@@H](CO)NC(=O)[C@@H](CCCNC(=N)N)NC(=O)[C@H]4CCCN4C(=O)CNC(=O)Cc4ccc(CNC(=O)[C@H](C)NC(=O)[C@@H](CCCNC(=N)N)NC(=O)[C@H]5CCCN5C(=O)[C@H](NC(=O)CNC(=O)Cc5ccc(CNC(=O)[C@@H](NC(=O)[C@@H](Cc6ccc(O)cc6)NC(=O)[C@@H](Cc6c[nH]cn6)NC(=O)[C@H]6CCCN6C(=O)[C@@H](Cc6c[nH]c7ccccc67)NC(=O)c6ccc7c(c6)C(=O)OC76c7ccc(O)cc7Oc7cc(O)ccc76)C(C)C)cc5)C(C)C)cc4)cc3)[C@H](C)O)cc2)cc1)C(=O)N[C@@H](C)C(=O)NCc1ccc(CC(N)=O)cc1", "note": "[KRAS-1-8] (5FAM-[dW][dP][dH][dY]V[X1]G[dV][dP][dR]A[X1]G[dP][dR][dS]F[X1][dY][dT][dP][dR]A[X1][dP]G[dR][dW]G[X1][dS][dP][dY][dL]A-{NHCH2C6H4(4-CH2CONH2)})", "values": [{"measurement": "Kd", "setting": "[1]; K-Ras, compound with fluorescein on N-term, read-out: KD[nM] in MST (with fluorescein on N-term)", "value": 44, "unit": "nM"}, {"measurement": "Kd", "setting": "[1]; read-out: KD (nM) [95% conf. int], MST, NNP1 library hit, target K-Ras, one-site binding model", "value": 44, "unit": "nM"}, {"measurement": "Kd", "setting": "[1]; read-out: KD of K-Ras hits by MST", "value": 44, "unit": "nM"}, {"measurement": "HillSlope", "setting": "[2]; curve fit of % binding, K-Ras G12V 30 nM, GST-cRaf 10 nM", "value": "−0.6222"}, {"measurement": "blank corrected HTRF", "setting": "[2]; conc. 1.00E−05", "value": 7296}, {"measurement": "blank corrected HTRF", "setting": "[2]; conc. 1.11E−06", "value": 10835}, {"measurement": "blank corrected HTRF", "setting": "[2]; conc. 1.37E−08", "value": 15117}, {"measurement": "blank corrected HTRF", "setting": "[2]; conc. 3.33E−06", "value": 9028}, {"measurement": "blank corrected HTRF", "setting": "[2]; conc. 3.70E−07", "value": 12171}, {"measurement": "blank corrected HTRF", "setting": "[2]; conc. 4.12E−08", "value": 15230}, {"measurement": "blank corrected HTRF", "setting": "[2]; conc. 4.57E−09", "value": 14396}, {"measurement": "blank corrected HTRF", "setting": "[2]; conc. 5.08E−10", "value": 13397}, {"measurement": "Inhibition of K-Ras-Raf PPI", "setting": "[3]", "value": "complete inhibition"}, {"measurement": "% signal compared to DMSO", "setting": "[4]; assay conc. 0.000508053 μM", "value": 99.94, "unit": "%"}, {"measurement": "% signal compared to DMSO", "setting": "[4]; assay conc. 0.001524158 μM", "value": 102.4, "unit": "%"}, {"measurement": "% signal compared to DMSO", "setting": "[4]; assay conc. 0.004572474 μM", "value": 103, "unit": "%"}, {"measurement": "% signal compared to DMSO", "setting": "[4]; assay conc. 0.013717421 μM", "value": 98.33, "unit": "%"}, {"measurement": "% signal compared to DMSO", "setting": "[4]; assay conc. 0.041152263 μM", "value": 87.69, "unit": "%"}, {"measurement": "% signal compared to DMSO", "setting": "[4]; assay conc. 0.12345679 μM", "value": 97.53, "unit": "%"}, {"measurement": "% signal compared to DMSO", "setting": "[4]; assay conc. 0.37037037 μM", "value": 93.95, "unit": "%"}, {"measurement": "% signal compared to DMSO", "setting": "[4]; assay conc. 1.111111111 μM", "value": 81.88, "unit": "%"}, {"measurement": "% signal compared to DMSO", "setting": "[4]; assay conc. 3.333333333 μM", "value": 68.53, "unit": "%"}, {"measurement": "% signal compared to DMSO", "setting": "[4]; assay conc. 10 μM", "value": "56.45* %"}]}]}
